Tests used:
Type in all cases: in vivo
[1] = system: Tobacco Budworm [Heliothis virescens (Fabricius)] eggs; test: Tobacco budworm eggs (TBW-E); conditions: percent in solution; 2-day old eggs
Outline: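 Mortality of dipped eggs served as read-out, recorded after untreated controls hatched and began feeding. Treatments used acetone solutions from 0.1% downward, with eggs incubated at 78° F; LC50 is expressed as percent of compound in the solution.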

[2] = system: Aster Leafhopper [Macrosteles fascifrens (Stal)]; test: Aster leafhopper on dipped oat seedlings (LH), 48 hours; conditions: percent in solution, adults/nymphs
Outline: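 LC50 values, given as percent of test compound in the dip solution, were derived from dosage-mortality curves over concentrations from 0.05% downward. Mortality was counted 48 hours after ten leafhopper adults/nymphs were enclosed on treated seedlings. The seedlings were oats, about 10 cm tall, briefly dipped in 50-50 acetone-water.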

[3] = system: Maize weevil [Sitophilus zeamais (Motschulsky)]; test: Maize weevil on dipped corn seeds (MW), 48 hours; conditions: percent in solution, adult weevils
Outline: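 LC50, given as percent of compound in dipping solution, comes from dosage-mortality curves over concentrations descending from 0.01%. Four corn seeds soaked 2-3 s in 50:50 acetone:water solution were dried and held with 10 adult weevils, about 25° C, mortality read after 48 h.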

[4] = system: Tobacco Budworm [Heliothis virescens (Fabricius)] larvae; test: Tobacco budworm larvae, contact (TBW-C), 5 days; conditions: percent in solution, second-instar larvae
Outline: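 Cotton cotyledons dipped 2–3 s in compound in 50-50 acetone-water, dried, then infested with 5 second-instar larvae and held 5 days at high humidity. Mortality scored; LC50 from dosage-mortality curves, expressed as percent compound in solution, concentrations from 0.1% downward.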

[5] = system: Rice water weevil [Lissorhoptrus oryzophilus (Kuschel)]; test: Rice water weevil topical (RWW), 48 hours; conditions: μg of test compound per weevil, female adults
Outline: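 Female adult weevils (ten per dose) received 1 µl acetone droplets on the ventral abdomen and were held at about 25 °C with wet cotton and rice foliage. Mortality read at 48 h; LC50 from dose-mortality curves, given as µg compound per weevil, top dose 2.5 µg per weevil.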

[6] = system: Housefly [Musca domestica]; test: Housefly contact mortality in dishes (HF), 48 hours; conditions: μg of test compound per 25 female flies
Outline: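 LC50, as μg compound per 25 female flies, comes from dosage-mortality curves with doses from 100 μg downward. Residues were made by evaporating acetone plus 0.01% peanut oil in dishes, onto which 1-2-day-old females were caged; deaths were counted after 48 hours.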

[7] = system: Cabbage Looper [Trichoplusia ni (Hubner)]; test: Cabbage looper leaf dip (CL), 3-5 days; conditions: percent in solution, second-instar larvae
Outline: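 Steps: dilute compound in 50-50 acetone-water from 0.1% downward; immerse cotyledon pieces 2-3 s and dry; place in humid petri dishes with five second-instar larvae; record mortality at 3-5 days. Dosage-mortality curves yield LC50 as percent in solution.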

[8] = system: Black Bean Aphid [Aphis fabae (Scop.)]; test: Black bean aphid spray test on nasturtium (BBA), 48 hours; conditions: percent of test compound in sprayed solution
Outline: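 LC50, given as percent test compound in the sprayed liquid, was calculated from dosage-mortality curves using concentrations from 0.05% downward. Sprays in 50:50 acetone-water went to runoff on ~5 cm nasturtiums carrying 25-50 aphids of mixed ages, one day after infestation. Deaths were counted 48 h later under greenhouse conditions.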

[9] = system: Beet Armyworm (Spodoptera exigua); test: Beet armyworm leaf dip (BAW), 5 days; conditions: percent in solution; second-instar larvae; five days
Outline: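 Five second-instar larvae per dish fed on dried sugar beet leaves previously dipped 2–3 s in acetone-water (1:1) test solutions up to 0.1%. Kept at high humidity, with deaths counted after five days; LC50 as % in solution via dosage-mortality curves.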

[10] = system: two-spotted mite [Tetranychus urticae (Koch)]; test: Two-spotted mite activity; conditions: initial testing level 0.05% in solution
Description: The compounds in Tables 1 and 2 were also tested for activity against the two-spotted mite [Tetranychus urticae (Koch)] and Western spotted cucumber beetle larvae [Diabrotica undecimpunctata undecimpunctata (Mannerheim)]. Initial testing levels were 0.05% (in solution) against the mite, and 25 ppm (in soil) against the beetle.

| SMILES | LC50 TBW E (eggs) [1] | LC50 LH [2] | LC50 MW [3] | LC50 TBW C (contact) [4] | LC50 RWW [5] | LC50 HF [6] | LC50 CL [7] | LC50 BBA [8] | LC50 BAW [9] | activity in tests against twospotted mite [10] |
| --- | --- | --- | --- | --- | --- | --- | --- | --- | --- | --- |
| CC(C)C(=Nc1ccc(F)c(Cl)c1)OCc1cccc(Oc2ccc(F)cc2)c1 [Compound 89] | 0.04% | 0.001% | 0.005% | 0.0005% | > 2.5 µg | 5 µg | 0.00003% | 0.003% | 0.009% |  |
| CC(C)C(=Nc1ccc2c(c1)OCO2)OCc1cccc(Oc2ccccc2)c1 [Compound 180] | 0.03% | 0.0015% | 0.008% | 0.003% | > 2.5 µg | 2 µg | 0.0004% | 0.0003% | 0.005% |  |
| CC(C)C(=Nc1ccc(F)c(Cl)c1)OCc1ccc(F)c(Oc2ccc(F)cc2)c1 [Compound 216] | 0.005% | 0.00025% | 0.0017% | 0.00018% | 0.067 µg | 2 µg | 0.000007% | 0.00025% | 0.0007% |  |
| CC(C)C(=Nc1ccc(F)c(Cl)c1)OCc1cccc(Oc2ccc(Cl)cc2)c1 [Compound 239] | 0.025% | 0.002% | 0.006% | 0.0005% | > 2.5 µg | 14 µg | 0.00015% | 0.001% | 0.005% |  |
| CC(C)C(=Nc1ccc(F)c(Cl)c1)OCc1ccc(F)c(Oc2ccc(Cl)cc2)c1 [Compound 267] | 0.015% | 0.002% | 0.0027% | 0.0003% | 0.11 µg | 8.4 µg | 0.00008% | 0.0003% | 0.0012% |  |
| CC(C)C(=Nc1ccc(Cl)cc1)OCc1cccc(Oc2ccc(Cl)cc2)c1 [Compound 269] | 0.04% | 0.003% | > 0.01% | 0.001% | > 2.5 µg | 25 µg | 0.0003% | > 0.05% | 0.0024% |  |
| CC(C)C(=Nc1ccc(F)c(Br)c1)OCc1ccc(F)c(Oc2ccc(F)cc2)c1 [Compound 273] | 0.015% | 0.0003% | 0.004% | 0.00025% | > 2.5 µg | 7 µg | 0.000018% | 0.0003% | 0.0017% |  |
| CC(C)C(=Nc1ccc(F)c(C(F)(F)F)c1)OCc1ccc(F)c(Oc2ccc(F)cc2)c1 [Compound 277] | 0.013% | 0.0003% | > 0.01% | 0.0005% | 0.065 µg | 4 µg | 0.00001% | 0.0008% | 0.005% |  |
| CC(C)C(=Nc1ccc(F)c(F)c1)OCc1ccc(F)c(Oc2ccc(F)cc2)c1 [Compound 278] | 0.008% | 0.0003% | 0.0063% | 0.00026% | 0.085 µg | 3 µg | 0.00002% | 0.0005% | 0.0012% |  |
| CC(C)C(=Nc1ccc(OC(F)(F)F)cc1)OCc1ccc(F)c(Oc2ccc(F)cc2)c1 [Compound 286] | 0.005% | 0.0006% | 0.0039% | 0.00017% | 0.09 µg | 34 µg | 0.000024% | 0.0003% | 0.0004% |  |
| CC(C)C(=Nc1ccc(OC(F)(F)F)cc1)OCc1ccc(F)c(Oc2ccc(Cl)cc2)c1 [Compound 323] | 0.045% | 0.05% | 0.0075% | 0.00065% | 0.16 µg | > 100 µg | 0.0006% | > 0.05% | 0.0025% |  |
| CC(C)C(=Nc1ccc(F)c(Cl)c1F)OCc1cccc(Oc2ccc(F)cc2)c1 [Compound 352] | > 0.1% | 0.0004% | 0.0075% | 0.0004% | > 2.5 µg | 4.6 µg | 0.000065% | 0.0003% | > 0.1% |  |
| CC(C)C(=Nc1ccc(OC(F)(F)C(F)Cl)cc1)OCc1cccc(Oc2ccccc2)c1 (stereo not drawn) [Compound 418] | > 0.1% |  | > 0.01% |  |  | > 100 µg | > 0.1% | > 0.05% |  | demonstrated activity |
| CC(C)C(=Nc1ccc(OC(F)(F)C(F)Cl)cc1)OCc1ccc(F)c(Oc2ccccc2)c1 (stereo not drawn) [Compound 419] | > 0.1% |  | > 0.01% |  |  | > 100 µg | > 0.1% | > 0.05% |  | demonstrated activity |

Reference: patent US5045566A, “Novel imidate insecticides” (ICI Americas Inc., priority 1989, dated 1991)
